The source of these data is US20240082273A1, “NEUROKININ INHIBITORS SUCH AS APREPITANT FOR TREATING NON SMALL CELL LUNG CARCINOMA OR BREAST CANCER WITHOUT MUTATIONS” (priority 2020, published 2024).

SMILES strings stand for the structures.

For data set [1] the following is noted: daily dosing from 625 to 875 mg; cited from earlier work.
For data set [2], the system named is H358. The data set is described as follows: MTT proliferation, H358. Format: cell-based, human. The following applies: 48 hours. The text has this: EGFR, ALK and ROS1 are key molecular factors that may be used to determine pathological classification, prognosis, therapeutics and behaviour in patients with lung cancer. EGFR, ALK and ROS1 are biomarkers routinely analysed in the clinical practice of the management of patients with NSCLC. NSCLC with molecular profile EGFR-/ALK-/ROS1- presents a better response to treatment with the NK1 inhibitor aprepitant, compared to lung cancer with different profiles (in particular, EGFR+/ALK-/ROS1- and EGFR-/ALK+/ROS1-, in which EGFR and ALK respectively contain mutations relative to their wild type gene). Commercial lines of lung cancer were used as shown in Table 2 together with their molecular profile. The molecular profile of the cancer cell lines was determined by sequencing and can be consulted in the Cancer Cell Line Encyclopaedia database of public access available at the url: https://portals.broadinstitute.org/ccle All cells were cultured in wells under vendor-recommended conditions and exposed to different concentrations of aprepitant for 48 hours. In each case a group of wells of cells were used to which no treatment was applied and which were considered as controls. At 48 hours the number of cells was measured. Eight cell lines of human were used for the study of NK1 inhibitors (Table 3). All of them were maintained in culture in their respective culture media (Gibco,Thermo Fisher Scientific) supplemented with 10% foetal bovine serum (FBS) (Gibco, Thermo Fisher Scientific), 2 mM L-Glutamine (Gln) (Sigma-Aldrich, Merk), and […] and […] Gibco, Thermo Fisher Scientific) in a humidified incubator at 37° C. and 5% CO2. Cell culture media used are Dulbecco's Modified Eagle Medium (DMEM), and RPMI Medium 1640 (RPMI-1640). To measure cell viability, the cytotoxicity of drugs in culture was evaluated using the 3-(4,5-Dimethyl-2-thiazolyl)-2,5-diphenyl-2H-tetrazolium bromide (MTT) reduction assay. This assay assesses cell viability through the indirect measurement of the activity of reductases that convert yellow soluble MTT into purple insoluble formazan salts. As MTT can only be reduced when these enzymes are active, the reaction is used as an indicator of the cell metabolic competence and, therefore, of viability. A variable number of cells (depending on the cell line) were seeded in 96 multi-well plates and grown during 24 hours. The following day, the culture medium was aspirated and fresh culture medium with the drug dissolved was added to the wells. After 24 hours or 48 hours cell viability was measurement by adding 10 μl of a 5 mg/ml MTT solution (M5655; Sigma-Aldrich) and 100 μl of HCl 0.01M-SDS 10% solution 4 hours later. After 24 hours, the absorbance was measured at 595 nm, using a multi-well plate reader (iMark, Bio-rad). Each condition was tested 5 times, obtaining 5 values of absorbance. All sample measurements were corrected using the blank (culture medium without cells) mean absorbance value, and normalized to positive control to determinate relative cell viability for each condition at 24 and 48 hours.

The nature of data set [3]: Xenograft mouse safety model (body weight, autopsy). Format: in vivo, C57BL/6J mice. The procedure: Fosaprepitant dimeglumine salt (CAS No 265121-04-8) was purchased from Selleck Chemicals and administered intraperitoneally at 30, 60 and 100 mg/kg dose, once a day. Fosaprepitant is a pro-drug available for parenteral administration that in the body, once administered, becomes aprepitant.
3LL cells (0.6×10^6 per mouse) or B16F10 cells (1×10^6 per mouse) were subcutaneously injected into the right flank of C57BL/6J mice (Charles River) with matrigel (Matrigel Membrane Matrix, Corning) at 50% v/v. Tumour growth was evaluated every 2/3 days. Animal vital parameters were monitored daily. When the tumours reached an average volume of 100-150 mm ^3, mice were randomized into cohorts of 6 animals each and treatments were administered for 7-9 days. Groups and regimens for each experiment are described in Table 1. Animals of the control group were dosed with equal volume of vehicle. Animals were euthanized according to institutional guidelines and tumour samples were excised. Tumours were snap-frozen in OCT medium (Sakura Tissue Tek) or fixed in PFA and embedded in paraffin. Several internal organs were also excised and fixed in PFA for future studies.

For data set [4], the system named is breast cancer cell lines ER−/PR−/HER2− (MDAMB231, MDAMB435, MDAMB468). The data set is described as follows: MTT proliferation, breast cancer cell lines ER−/PR−/HER2−. Format: cell-based, human. The following applies: for Mean proliferation: 48 hours. How it is done:
All cells were cultured in wells under vendor-recommended conditions and exposed to different concentrations of aprepitant for 48 hours. In each case a group of wells of cells were used to which no treatment was applied and which were considered as controls. At 48 hours the number of cells was measured. To measure cell viability, the cytotoxicity of drugs in culture was evaluated using the 3-(4,5-Dimethyl-2-thiazolyl)-2,5-diphenyl-2H-tetrazolium bromide (MTT) reduction assay. This assay assesses cell viability through the indirect measurement of the activity of reductases that convert yellow soluble MTT into purple insoluble formazan salts. As MTT can only be reduced when these enzymes are active, the reaction is used as an indicator of the cell metabolic competence and, therefore, of viability. A variable number of cells (depending on the cell line) were seeded in 96 multi-well plates and grown during 24 hours. The following day, the culture medium was aspirated and fresh culture medium with the drug dissolved was added to the wells. After 24 hours or 48 hours cell viability was measurement by adding 10 μl of a 5 mg/ml MTT solution (M5655; Sigma-Aldrich) and 100 μl of HCl 0.01M-SDS 10% solution 4 hours later. After 24 hours, the absorbance was measured at 595 nm, using a multi-well plate reader (iMark, Bio-rad). Each condition was tested 5 times, obtaining 5 values of absorbance. All sample measurements were corrected using the blank (culture medium without cells) mean absorbance value, and normalized to positive control to determinate relative cell viability for each condition at 24 and 48 hours.

For the compound `C[C@@H](O[C@H]1OCCN(Cc2nc(=O)[nH][nH]2)[C@H]1c1ccc(F)cc1)c1cc(C(F)(F)F)cc(C(F)(F)F)c1` [Aprepitant], the plasma trough level in data set [1] is 2.65 µg/mL. In data set [1], the “plasma trough level (equivalent)” value is 5 µM. In addition, the Mean proliferation in data set [2] (aprepitant 1 μM) is 101.3; in data set [2] (aprepitant 3 μM), 89.28; in data set [2] (aprepitant 5 μM), 87.69; in data set [2] (aprepitant 10 μM), 64.12; in data set [2] (aprepitant 20 μM) it was 43.44; in data set [2] (aprepitant 30 μM), 32.09. For the same compound, the Mean proliferation in data set [2] (aprepitant 40 μM) is 27.23; in data set [2] (aprepitant 50 μM), 3.10; in data set [2] (aprepitant 60 μM), 2.86; in data set [4] (aprepitant 0.3 μM), 98.63; in data set [4] (aprepitant 1 μM) it was 97.94; in data set [4] (aprepitant 3 μM), 98.98. The Mean proliferation in data set [4] (aprepitant 10 μM) is on record as 74.02; in data set [4] (aprepitant 20 μM), 42.89; in data set [4] (aprepitant 30 μM), 24.11; in data set [4] (aprepitant 40 μM) it was 7.53; in data set [4] (aprepitant 50 μM), 1.89; in data set [4] (aprepitant 60 μM) it was 6.77. In data set [3] (all animals, 30, 60 and 100 mg/kg/day), the “autopsy, organs explored microscopically: signs of toxicity” value was “no significant signs of toxicity”. The “safety (body weight, histological study of the main organs)” value in data set [3] (mouse, in vivo, 100 mg/kg/day) was “safe”. For the same compound, in data set [4] (Homo sapiens, concentration of 20 μM (FIG. 5), read-out: growth inhibition), the inhibition – broadly, the relative decrease from the control value, in per cent – at 20 µM is approximately 60%. The “triple negative breast carcinoma proliferation in culture relative to ER+/PR+/HER2+, ER−/PR−/HER2+ and ER+/PR+/HER2−” value in data set [4] (dose dependent) is on record as “reduces”.
